A compilation of properties of binary mixtures (doi:10.1016/s1004-9541(08)60072-5)

Assay: xn = mol fraction of the nth substance listed
Details: 101 kPa

CN(C)C=O + CCCC[n+]1ccn(C)c1.F[P-](F)(F)(F)(F)F
x1 = 1
Details	viscosity [mPa·s]
293.15 K	0.91
298.15 K	0.87
308.15 K	0.78
313.15 K	0.75
318.15 K	0.72

CCCC[n+]1ccn(C)c1.F[P-](F)(F)(F)(F)F + CN(C)C=O
viscosity [mPa·s]
Details	x2 = 0	x2 = 0.1002	x2 = 0.2	x2 = 0.3002	x2 = 0.3999	x2 = 0.5	x2 = 0.6	x2 = 0.7	x2 = 0.7999	x2 = 0.8999
293.15 K	265	151.1	94.6	59.6	–	23.41	12.37	6.86	3.71	1.9
298.15 K	205.6	114.5	73.4	47.4	32.09	19.44	10.57	6.02	3.35	1.77
303.15 K	165.7	88.2	58	38.1	26.34	16.3	9.11	5.32	3.03	1.62
308.15 K	133.9	68.8	45.9	–	21.74	13.74	–	–	2.73	1.5
313.15 K	110.8	54.9	37.4	25.68	18.3	11.82	6.94	4.22	2.51	1.4
318.15 K	–	44.6	–	21.55	15.57	10.24	–	3.82	2.3	1.31
